Test: Compound 1 plasma concentration at trough (LC-MS) in piroxicam-accelerated MDR1a−/− colitis mice
Assay type: in vivo, mouse
Conditions: 90 mg/kg SC BID in 10% Cremophor-EL; trough blood after 3rd and 21st day of dosing; FIG. 1
Procedure: Compound 1 was dosed at 90 mg/kg in 10% Cremophor-EL, SC, BID. Vehicle was 10% Cremophor-EL and was administered SC, BID. Anti-mouse TNFα clone XT3.11 (Rat IgG1), 300 μg/mouse, QD/QOD; Isotype-matched control Clone HRPN (Rat IgG1), 300 μg/mouse, QD/QOD.
Blood was taken at trough from all Compound 1-dosed mice, and plasma analyzed by Liquid Chromatography-Mass Spectroscopy to determine Compound 1 concentration. Trough blood was taken after the 3rd day (left panel) and 21st day (right panel) of dosing (FIG. 1).

CC(C)(C)c1ccc(S(=O)(=O)Nc2ccc(Cl)cc2C(=O)c2cc[n+]([O-])cc2)cc1 [Compound 1]
Compound 1 plasma concentration at trough: met or exceeded the minimal concentration established for 98% receptor coverage

Source: patent publication US10792360B1, “Compositions and methods for treating inflammatory bowel disease using CCR9 inhibitor and anti-TNF-alpha blocking antibodies” (ChemoCentryx, Inc., priority 2019, dated 2020)
